Here are results for six molecules from US7910617B2 (Sankyo Company, Limited, priority 2004, dated 2011).

In series [1] the test system is Rat Peripheral Blood Lymphocyte Count. The series can be described thus: Measurement of rat peripheral blood lymphocyte count (relative count and ID50) after oral administration. It counts as in vivo. As to conditions: LEW rats; for Lymphocyte Count (Relative Value Based on a value of 100% for Normal Control Group) (%): blood collected 3 hours after administration, dose not given; for ID50 of rat peripheral blood lymphocyte count: dosage giving 50% inhibition rate of lymphocyte count. Here is the method: Measurement of Rat Peripheral Blood Lymphocyte Count
• (1) LEW rats (males, age 5 weeks, Japan Charles River) were used in groups of 5 animals per group. • (2) Administration of Compounds
The compounds were suspended in 1% tragacanth liquid (solvent). The suspended compounds were orally administered to the rats using a gastric tube in a dose of 5 mL per kg of body weight. Furthermore, the solvent was administered instead of the suspended compounds to a normal control group. • (3) Measurement of Peripheral Blood Lymphocyte Count
Blood samples were collected from the descending vena cava under ether anesthesia 3 hours after administration of the solvent or suspended compounds, and then transferred to tubes containing EDTA.
The absolute lymphocyte counts were measured for the collected blood samples using a hematology testing device. Lymphocyte count lowering activity of the test compounds was calculated as a relative value (%) based on a value of 100% for the lymphocyte count of the normal control group.
Measurement of ID50 of Rat Peripheral Blood Lymphocyte Count (mg/kg)
Inhibition rate (%) ={1-(lymphocyte count of compound dose group/lymphocyte count of solvent dose group)}×100 The dosage of the compound that yielded a value of 50% for the inhibition rate was calculated as the ID50 value.

Series [2] in a line: Rat pharmacokinetics (dosage: 1 mg/kg), blood compound concentrations. It counts as in vivo. As to conditions: male, whole blood, po, LEWIS rats, 1 mg/kg directly into the stomach; for AUC(0-t): read-out: AUC (0–24 h); for half-life: read-out: T½ (converted). Here is the method: Rat Pharmacokinetics (dosage: 1 mg/kg)
• (1) LEWIS rats (males, age 6 weeks, Japan Charles River) were used after acclimating for 1 week. 1 to 3 rats were used for each compound. • (2) Administration of Compounds
The compounds were dissolved in an aqueous physiological saline solution containing 4% (w/v) sulfobutyl ether β-cyclodextrin. The rats were administered the dissolved compounds directly into the stomach using a metal gastric tube in a dose of 2 mL per kg of body weight. • (3) Measurement of Blood Compound Concentrations
Blood samples were collected at 0.1 mL/animal/collection from the jugular vein using heparin as anticoagulant under ether anesthesia at predetermined times after administering the compounds. The blood samples were promptly treated with methanol after collection, and were placed in frozen storage until the time of measurement treatment. After treating the resulting blood samples by solid phase extraction, blood compound concentrations were measured with a high-performance liquid chromatograph-quadropole mass spectrometer. Various pharmacokinetic parameters were then calculated using pharmacokinetics analysis software (Winnonlin Professional) from the resulting blood concentrations.

As for `CC(N)(CO)CCc1ccc(C(=O)CCCCc2ccccc2)s1` (centres unmarked) [Comparative Compound 1, reference compound], the “Lymphocyte Count (Relative Value Based on a value of 100% for Normal Control Group) (%)” value in series [1] is 30%.

For `Cn1c(CC[C@@](C)(N)CO)ccc1C(=O)CCCc1ccccc1` [Comparative Compound 2, reference compound], in series [1], the “Lymphocyte Count (Relative Value Based on a value of 100% for Normal Control Group) (%)” value was 31% and the “ID50 of rat peripheral blood lymphocyte count” value (from here on “ID50”) came to 0.78 mg/kg.

A word on the Cmax: it is the highest concentration seen after dosing. For `Cc1ccc(CCCC(=O)c2ccc(CC[C@@](C)(N)CO)n2C)cc1C.Cl` [Example 2, (2R)-2-Amino-2-methyl-4-{1-methyl-5-[4-(3,4-dimethylphenyl)butanoyl]pyrrol-2-yl}butan-1-ol hydrochloride], in series [2], the Cmax is 8.4 ng/mL, the AUC(0-t) came to 123 ng·h/mL and the half-life is 8.5 h.

For the molecule `Cc1ccc(CCCC(=O)c2ccc(CC[C@@](C)(N)CO)n2C)cc1.Cl` [Example 1, (2R) -2-Amino-2-methyl-4-{1-methyl-5-[4-(4-methylphenyl)butanoyl]pyrrol-2-yl}butan-1-ol hydrochloride], in series [1], the “Lymphocyte Count (Relative Value Based on a value of 100% for Normal Control Group) (%)” value was determined as 8% and the “ID50” value was 0.21 mg/kg. In addition, in series [2], the peak level (Cmax) was 19.4 ng/mL, the AUC(0-t) is 288 ng·h/mL and the half-life was 15.6 h.

In the case of `COc1ccc(CCCC(=O)c2ccc(CC[C@@](C)(N)CO)n2C)cc1C.Cl` [Example 11, (2R)-2-Amino-2-methyl-4-{1-methyl-5-[4-(3-methyl-4-methoxyphenyl)butanoyl]pyrrol-2-yl}butan-1-ol hydrochloride], in series [1], the “Lymphocyte Count (Relative Value Based on a value of 100% for Normal Control Group) (%)” value is 11% and the “ID50” value amounted to 0.39 mg/kg. In addition, in series [2], the Cmax turned out to be 5.38 ng/mL, the AUC(0-t) stood at 71.7 ng·h/mL and the half-life is 6.04 h.

For the molecule `Cc1ccc(CCCC(=O)c2ccc(CC[C@@](C)(N)CO)n2C)cc1C.Cl` [Example 2], the “ID50” value in series [1] came to 0.42 mg/kg.
